Values quoted from earlier work as cited in patent publication US7375136B2, “pH-dependent NMDA receptor antagonists” (Emory University, priority 2001, dated 2008).

Biological target: NR2B subunit-containing recombinant NMDA receptors (Homo sapiens, UniProt Q05586+Q13224)
Details: pH 6.8 compared to pH 7.5; cited from earlier work

Chain of NR2B subunit-containing recombinant NMDA receptors (Q13224 27-1484, other chains not shown): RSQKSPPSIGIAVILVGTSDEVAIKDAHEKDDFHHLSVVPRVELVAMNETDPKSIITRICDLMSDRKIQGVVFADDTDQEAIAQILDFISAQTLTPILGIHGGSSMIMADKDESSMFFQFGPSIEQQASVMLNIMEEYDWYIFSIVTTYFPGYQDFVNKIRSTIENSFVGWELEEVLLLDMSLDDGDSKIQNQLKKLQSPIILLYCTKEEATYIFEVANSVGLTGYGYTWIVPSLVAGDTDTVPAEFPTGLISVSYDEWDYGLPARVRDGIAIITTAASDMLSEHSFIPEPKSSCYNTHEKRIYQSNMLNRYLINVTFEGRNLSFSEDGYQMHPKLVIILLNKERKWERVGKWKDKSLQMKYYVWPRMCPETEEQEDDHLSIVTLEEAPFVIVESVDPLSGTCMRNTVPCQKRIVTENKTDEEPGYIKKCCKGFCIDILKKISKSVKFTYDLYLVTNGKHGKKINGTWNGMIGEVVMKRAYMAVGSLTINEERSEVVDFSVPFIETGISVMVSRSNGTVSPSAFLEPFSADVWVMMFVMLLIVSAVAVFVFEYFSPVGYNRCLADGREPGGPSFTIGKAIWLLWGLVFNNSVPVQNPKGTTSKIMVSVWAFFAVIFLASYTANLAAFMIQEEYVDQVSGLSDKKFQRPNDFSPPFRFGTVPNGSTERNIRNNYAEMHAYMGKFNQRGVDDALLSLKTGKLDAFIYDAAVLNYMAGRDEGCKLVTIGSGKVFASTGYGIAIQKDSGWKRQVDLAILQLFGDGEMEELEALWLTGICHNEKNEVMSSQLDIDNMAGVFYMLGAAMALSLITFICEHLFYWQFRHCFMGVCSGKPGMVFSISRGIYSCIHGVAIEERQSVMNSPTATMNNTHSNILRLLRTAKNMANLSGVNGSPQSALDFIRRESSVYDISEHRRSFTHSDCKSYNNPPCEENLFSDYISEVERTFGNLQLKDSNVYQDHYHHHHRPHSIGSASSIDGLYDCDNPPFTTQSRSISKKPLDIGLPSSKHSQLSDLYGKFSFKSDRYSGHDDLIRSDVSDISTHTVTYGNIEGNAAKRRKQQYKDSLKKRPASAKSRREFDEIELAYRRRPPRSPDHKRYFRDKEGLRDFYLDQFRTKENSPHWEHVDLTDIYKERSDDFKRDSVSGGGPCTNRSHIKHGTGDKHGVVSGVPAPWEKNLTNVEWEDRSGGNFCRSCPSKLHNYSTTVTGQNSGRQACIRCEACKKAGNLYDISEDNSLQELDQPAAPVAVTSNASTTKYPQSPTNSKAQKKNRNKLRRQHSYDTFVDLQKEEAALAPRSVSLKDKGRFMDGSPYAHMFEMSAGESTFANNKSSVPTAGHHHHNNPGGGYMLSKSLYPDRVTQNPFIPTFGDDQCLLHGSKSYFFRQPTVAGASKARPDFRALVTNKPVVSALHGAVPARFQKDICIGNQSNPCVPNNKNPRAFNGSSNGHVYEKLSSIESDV

For `CC(C(O)c1ccc(O)cc1)N1CCC(Cc2ccccc2)CC1` (stereo not shown) [Ifenprodil], the “potency for inhibition of NR2B subunit-containing recombinant NMDA receptors as a function of pH” value is given as “enhanced at pH 6.8 compared to pH 7.5”.
